Values joined by “and” are separate entries in the source; they are usually repeats but may differ in a detail not shown here. Identical values can stand only once.
Assay: wn = mass fraction of the nth substance listed
Conditions: Liquid, Pycnometric method, w2 = 0.4981

FC(F)C(F)(F)F [pentafluoroethane] + FCF
Conditions	mass density
277.15 K, 11982 kPa	1205.5 kg/m3
278.15 K, 12826 kPa	1205.4 kg/m3
279.15 K, 13669 kPa	1205.2 kg/m3
280.15 K, 14512 kPa	1205.1 kg/m3
281.15 K, 15355 kPa	1204.9 kg/m3
282.15 K, 16198 kPa	1204.8 kg/m3
283.15 K, 17040 kPa	1204.6 kg/m3
284.15 K, 17881 kPa	1204.5 kg/m3
285.15 K, 18722 kPa	1204.3 kg/m3
286.15 K, 19563 kPa	1204.2 kg/m3
287.15 K, 20403 kPa	1204 kg/m3
288.15 K, 21239 kPa	1203.8 kg/m3
289.15 K, 22077 kPa	1203.7 kg/m3
291.15 K, 23750 kPa	1203.4 kg/m3
292.15 K, 24585 kPa	1203.2 kg/m3
293.15 K, 25420 kPa	1203 kg/m3
294.15 K, 26254 kPa	1202.9 kg/m3
295.15 K, 27085 kPa	1202.7 kg/m3
296.15 K, 27917 kPa	1202.5 kg/m3
297.15 K, 8118 kPa	1113.5 kg/m3
297.15 K, 28747 kPa	1202.3 kg/m3
298.15 K, 29575 kPa	1202.2 kg/m3
299.15 K, 9422 kPa	1113.3 kg/m3
300.15 K, 10072 kPa	1113.2 kg/m3
300.15 K, 10089 kPa	1113.1 kg/m3
301.15 K, 10723 kPa	1113.1 kg/m3
301.15 K, 10737 kPa	1113 kg/m3
302.15 K, 11374 kPa	1113 kg/m3
302.15 K, 11385 kPa	1112.9 kg/m3
303.15 K, 12024 kPa	1112.9 kg/m3
303.15 K, 12032 kPa	1112.8 kg/m3
304.15 K, 12672 kPa	1112.8 kg/m3
304.15 K, 12680 kPa	1112.7 kg/m3
305.15 K, 13320 kPa	1112.6 kg/m3
305.15 K, 13327 kPa	1112.5 kg/m3
306.15 K, 13970 kPa	1112.5 kg/m3
306.15 K, 13973 kPa	1112.4 kg/m3
307.15 K, 14620 kPa	1112.4 kg/m3 and 1112.3 kg/m3
308.15 K, 15268 kPa	1112.3 kg/m3 and 1112.2 kg/m3
309.15 K, 15915 kPa	1112.1 kg/m3
309.15 K, 15917 kPa	1112.1 kg/m3
310.15 K, 16562 kPa	1111.9 kg/m3
310.15 K, 16564 kPa	1112 kg/m3
311.15 K, 17208 kPa	1111.8 kg/m3
311.15 K, 17212 kPa	1111.9 kg/m3
312.15 K, 17853 kPa	1111.7 kg/m3
312.15 K, 17859 kPa	1111.7 kg/m3
313.15 K, 18499 kPa	1111.6 kg/m3
313.15 K, 18506 kPa	1111.6 kg/m3
314.15 K, 19144 kPa	1111.4 kg/m3
314.15 K, 19153 kPa	1111.5 kg/m3
315.15 K, 19788 kPa	1111.3 kg/m3
315.15 K, 19798 kPa	1111.3 kg/m3
316.15 K, 20432 kPa	1111.2 kg/m3
316.15 K, 20443 kPa	1111.2 kg/m3
317.15 K, 21075 kPa	1111 kg/m3
317.15 K, 21088 kPa	1111.1 kg/m3
318.15 K, 21719 kPa	1110.9 kg/m3
318.15 K, 21733 kPa	1110.9 kg/m3
319.15 K, 22362 kPa	1110.7 kg/m3
319.15 K, 22377 kPa	1110.8 kg/m3
320.15 K, 23005 kPa	1110.6 kg/m3
320.15 K, 23021 kPa	1110.7 kg/m3
321.15 K, 23648 kPa	1110.5 kg/m3
321.15 K, 23665 kPa	1110.5 kg/m3
322.15 K, 24289 kPa	1110.3 kg/m3
322.15 K, 24307 kPa	1110.4 kg/m3
323.15 K, 24930 kPa	1110.2 kg/m3
323.15 K, 24949 kPa	1110.3 kg/m3
324.15 K, 25571 kPa	1110 kg/m3
324.15 K, 25590 kPa	1110.1 kg/m3
325.15 K, 26210 kPa	1109.9 kg/m3
325.15 K, 26231 kPa	1110 kg/m3
326.15 K, 26850 kPa	1109.8 kg/m3
326.15 K, 26871 kPa	1109.8 kg/m3
327.15 K, 27488 kPa	1109.6 kg/m3
327.15 K, 27511 kPa	1109.7 kg/m3
328.15 K, 28127 kPa	1109.4 kg/m3
328.15 K, 28150 kPa	1109.5 kg/m3
329.15 K, 5865 kPa	921.2 kg/m3
329.15 K, 5904 kPa	921.4 kg/m3
329.15 K, 28764 kPa	1109.3 kg/m3
329.15 K, 28790 kPa	1109.4 kg/m3
330.15 K, 6231 kPa	921.1 kg/m3
330.15 K, 6255 kPa	921.2 kg/m3
330.15 K, 6269 kPa	921.3 kg/m3
330.15 K, 29402 kPa	1109.1 kg/m3
330.15 K, 29426 kPa	1109.2 kg/m3
331.15 K, 6598 kPa	921 kg/m3
331.15 K, 6620 kPa	921.1 kg/m3
331.15 K, 6635 kPa	921.2 kg/m3
331.15 K, 30065 kPa	1109.1 kg/m3
332.15 K, 6965 kPa	921 kg/m3
332.15 K, 6987 kPa	921 kg/m3

Reference: the NIST ThermoML archive (doi:10.1007/s10765-010-0766-0)
